The text below walks through data of article PMC5019375, “Characterization of Potent SMAC Mimetics that Sensitize Cancer Cells to TNF Family-Induced Apoptosis” (PLoS ONE, 2016).

Several values for one entry are separate records, joined by “and”; a condition that tells them apart may be missing. Equal entries are not always repeated. A value given as a limit tells only on which side of the number the result lay.

The term Ki denotes a dissociation constant, usually derived from enzyme kinetics or from competition with a known ligand. What is called EC50 is the concentration needed to bring the measured effect to its halfway point.

One series deals with cIAP2-BIR2 (Homo sapiens, UniProt Q13489). Description: FP competition assay, displacement of SMAC-rhodamine.
A further series addresses cIAP1-BIR3 (Homo sapiens, UniProt Q13490). The series is described as above.
The target of the next series is cIAP1-BIR2 (Homo sapiens, UniProt Q13490). The description is as above.
The target in a further series is cIAP2-BIR3 (Homo sapiens, UniProt Q13489). The description is as above.
Series [1] has as its system PC-3 prostate cancer cells. Description: Cytotoxicity assay, sensitization to LT-α (CellTiter-Glo). Type of series: cell-based, human. The settings on record: for EC50 / LT-α EC50: 24 h. The arrangement: key to LT-α EC50: IN: EC50 too weak to be determined. Here is the method: (§1) Cellular cytotoxicity experiments were conducted in white 96-well flat bottom plates (Greiner Bio-One #655074). PC-3 prostate cancer cells were seeded into microtiter wells in 90 μL RPMI medium with 10% fetal calf serum and antibiotics at 5,000 cells per well, and then incubated overnight at 37°C with 5% CO2/95% air. The next day, compounds diluted into the same culture medium and added in 10 μL aliquots to achieve various final concentrations, maintaining a uniform total volume per well. Either TNF (at 10 nM final) or LT-α (at ~90 pM final) resuspended in 10 μL of RPMI with 10% fetal calf serum and antibiotics was added to wells or an equal volume of medium was applied for the control well. The plates were then further incubated for 24 h. Subsequently, cell viability was assessed by the addition of 25 μL per well of Cell-Titer-Glo reagent (Promega, Inc). Plates were read using a Luminoskan Ascent luminometer.
(§2) The cellular activity of cIAP1 and cIAP2 inhibitors was evaluated through experiments where cytotoxicity of a human prostate tumor cell line (PC-3) was assessed in the presence or absence of cytokines TNF and LT-α. The experimental approach we used was to provide TNF or LT-α at a fixed concentration, which by itself was non-cytotoxic, then titrate SMAC mimetics into the cell cultures. […] The compound series described in this work has been tested against a broad range of cell lines (data not shown and [23]) and single agent toxicity was only observed for SKOV3 ovarian tumor cells. This agrees with the findings of Varfolomeev, Vince and Lalaoui, respectively.
(ATP-based viability assays read luminescence as a measure of living cells.)

In series [2] the target is T1, myc-RIP1 binding to GST-cIAP2-BIR3 (Homo sapiens, UniProt Q13489).
T1 construct: purified GST-fusion proteins (GST-cIAP1-BIR3 or GST-cIAP2-BIR3) were added; made in house; host or cells: GST fusion: bacteria (as for the other recombinant proteins); myc-RIP1: transfected HEK293T cell lysate
Description: RIP1 binding, GST pull-down from HEK293T lysates. The settings on record: various concentrations, overnight, 4°C. Here is the method: (§3) To assess the impact of compounds on cIAP1 and cIAP2 binding to RIP1, 700,000 HEK293T cells were seeded into 100 mm cell-culture plates and transfected the next day with 6 μg of plasmid DNA, myc-RIP1 in pRK5 vector. […] Lysates from 6 plates were pooled and divided into equal 300 μL aliquots, into which 7 μg of purified GST-fusion proteins (GST-cIAP1-BIR3 or GST-cIAP2-BIR3) were added in the presence of various concentrations of SMAC mimetic compounds. The tubes were rocked overnight at 4°C, and the next day 20 μL of glutathione-Sepharose beads (GE Healthcare) was added to each tube and the tubes were rocked for an additional 2 h at 4°C. The GST-fusion proteins were recovered by centrifugation at 2,300 g for 30 sec, then washed 3-times in NP-40 lysis buffer. Finally, 20 μL of 2X Laemmli buffer was added and the samples were boiled, then fractionated by SDS-PAGE, followed by immunoblotting using anti-myc antibody (Roche) for detection of myc-RIP1 and anti-GST antibody (BD Biosciences, La Jolla, CA) for detection of GST-fusion proteins.

Series [3] concerns the target T2, myc-RIP1 binding to GST-cIAP1-BIR3 (Homo sapiens, UniProt Q13490).
T2 construct: purified GST-fusion proteins (GST-cIAP1-BIR3 or GST-cIAP2-BIR3) were added; made in house; host or cells: GST fusion: bacteria (as for the other recombinant proteins); myc-RIP1: transfected HEK293T cell lysate
Description: RIP1 binding, GST pull-down from HEK293T lysates. The following applies: various concentrations, overnight, 4°C. Here is the method:
as §3

The subject of series [4] is PC-3 prostate cancer cells. Description: Cytotoxicity assay, sensitization to TNF (CellTiter-Glo). The following applies: for EC50 / TNF EC50: 10 nM TNF, 24 h. Type of series: cell-based, human. The arrangement: key to TNF EC50: IN: EC50 too weak to be determined. As for the experimental part: as §1, §2
In series [5] the target is T3, cIAP1 protein in MDA-MB-231 cells (Homo sapiens, UniProt Q13490).
T3 construct: MDA-MB-231 cells contain abundant levels of cIAP1 protein but little cIAP2 protein; endogenous in cells; host or cells: MDA-MB-231
Description: Immunoblotting of cIAP1 protein levels in cells. Type of series: cell-based. The following applies: 5 μM, 6 h, immunoblot. Here is the method:
To assess the impact of compounds on cIAP1 protein levels in cells, 40,000 MDA-MB-231 cells were cultured in complete medium (RPMI with 10% fetal calf serum and antibiotics) overnight at 37°C in 5% CO2/95% air. The following day compounds at 5 μM (or an equivalent volume of diluent control) were added. After 6 h, cells were recovered by centrifugation, lysed in SDS-sample buffer, and equivolume aliquots of lysates were analyzed by SDS-PAGE/Immunoblotting using antibodies specific for human/mouse cIAP (pan) Mab (clone 315301; R&D Systems #MAB3400) and β-actin (Sigma-Aldrich #A5441) by an enhanced chemiluminescence (ECL) method, essentially as described.
In general terms: Immunoblotting shows a protein as a band on a membrane.

The mark [6] stands for this setting: cIAP1 BIR3 Ki, 25 mM Hepes pH 7.5, 1 mM TCEP, 0.005% Tween 20, 20 nM SMAC-rhodamine, 40 mM β-glycerol phosphate, ~50 nM protein, Ki calculated from IC50.
Setting [7] is: PC-3 cells, cell viability, read-out: TNF EC50.
Where [8] appears, read: PC-3 cells, ~90 pM LT-α, cell viability, read-out: LT-α EC50.
Where [9] appears, read: PC-3 cells, ~90 pM LT-α, cell viability.

cIAP1-BIR2, sequence (Q13490 144-260): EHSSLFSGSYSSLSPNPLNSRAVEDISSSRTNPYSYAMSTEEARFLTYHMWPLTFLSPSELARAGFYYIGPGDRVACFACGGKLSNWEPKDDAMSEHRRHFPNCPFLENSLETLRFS
cIAP1-BIR3, sequence (Q13490 257-356): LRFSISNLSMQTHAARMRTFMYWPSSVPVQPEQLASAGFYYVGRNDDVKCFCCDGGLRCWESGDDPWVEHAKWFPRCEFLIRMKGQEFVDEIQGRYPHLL
T2 sequence (Q13490 257-356 limits assumed): as the sequence (Q13490 257-356) above
T1 sequence (Q13489 243-333 limits assumed): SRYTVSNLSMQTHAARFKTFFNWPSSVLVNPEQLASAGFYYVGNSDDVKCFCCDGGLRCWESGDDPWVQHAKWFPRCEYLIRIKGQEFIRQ
cIAP2-BIR3, sequence (Q13489 243-333): as the sequence (Q13489 243-333 limits assumed) above
cIAP2-BIR2, sequence (Q13489 129-246): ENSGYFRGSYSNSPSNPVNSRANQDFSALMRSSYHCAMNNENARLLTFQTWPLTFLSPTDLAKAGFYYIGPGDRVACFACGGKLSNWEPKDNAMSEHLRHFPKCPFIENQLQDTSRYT
T3 sequence (Q13490 whole entry): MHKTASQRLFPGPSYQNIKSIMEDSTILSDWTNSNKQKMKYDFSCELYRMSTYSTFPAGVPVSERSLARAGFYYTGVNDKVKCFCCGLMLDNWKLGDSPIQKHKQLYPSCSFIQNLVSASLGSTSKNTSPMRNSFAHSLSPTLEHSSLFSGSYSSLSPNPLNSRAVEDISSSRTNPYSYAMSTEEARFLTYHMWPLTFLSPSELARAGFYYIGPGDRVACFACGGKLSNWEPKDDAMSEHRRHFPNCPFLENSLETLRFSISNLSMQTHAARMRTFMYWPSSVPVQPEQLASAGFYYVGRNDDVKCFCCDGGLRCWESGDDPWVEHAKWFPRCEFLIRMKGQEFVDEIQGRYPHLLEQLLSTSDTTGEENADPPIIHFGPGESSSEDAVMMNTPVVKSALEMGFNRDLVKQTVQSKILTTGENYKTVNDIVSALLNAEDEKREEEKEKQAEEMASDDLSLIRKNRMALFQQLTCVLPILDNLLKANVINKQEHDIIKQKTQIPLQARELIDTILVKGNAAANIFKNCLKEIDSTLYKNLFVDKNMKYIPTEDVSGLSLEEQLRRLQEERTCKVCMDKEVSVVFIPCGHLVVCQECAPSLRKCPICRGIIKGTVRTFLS
Description for cIAP1-BIR2: (§4) Solutions for assessing SMAC-rhodamine binding to various BIR domains were empirically optimized. […] For cIAP1-BIR3, the assay buffer was 25 mM Hepes [pH 7.5] containing 40 mM β-glycerol phosphate, 1 mM TCEP, and 0.005% Tween 20, typically with 20 nM SMAC-rhodamine. For cIAP1-BIR2, cIAP2-BIR2 and cIAP2-BIR3, assays were performed in 25 mM Hepes [pH 7.5] containing 1 mM TCEP and 0.005% Tween 20, typically with 20 nM SMAC-rhodamine.
(§5) For cIAP1-BIR2, assays were conducted using 25 mM Hepes [pH 7.5] containing 1 mM TCEP, 0.005% Tween 20, ~1 μM cIAP1-BIR2, and 20 nM SMAC-rhodamine. For cIAP1-BIR3, assays were performed using the same buffered solution, except 40 mM β-glycerol phosphate was added and the cIAP1-BIR3 concentration was reduced to 50 nM. For cIAP2-BIR2, assays included a buffer containing 25 mM Hepes [pH 7.5] containing 1 mM TCEP, 0.005% Tween 20, 1 μM cIAP2-BIR2, and 20 nM SMAC-rhodamine. […] IC50 values were determined with a nonlinear fit using Prism software. Ki values were determined from the IC50 values using an online program developed by Nikolovska-Coleska et al. [26].
Description for cIAP2-BIR2: as §4, §5

As for `CN[C@@H](C)C(=O)N[C@H](C(=O)N1CCC[C@H]1C(=O)N[C@@H]1CCCc2ccccc21)C(C)C` [compound 1], the Ki was 2340 nM on cIAP2-BIR2; 24 ± 1 nM at cIAP1-BIR3 (Ki against cIAP1-BIR3, FP assay); 20 nM on cIAP1-BIR3 (setting [6]); 840 nM at cIAP1-BIR2; 40 ± 10 nM on cIAP2-BIR3. Moreover, at cIAP1-BIR3 (estimated by relative Ki values, cIAP1 and cIAP2 vs XIAP), the “binding affinity for cIAP1 and cIAP2 compared with XIAP” value is “higher affinity binding to cIAP1 and cIAP2 than XIAP”. Further, in [1] (Homo sapiens, representative curves, 90 pM LT-α, CellTiter-Glo, read-out: EC50, sensitization of PC-3 tumor cells to LT-α (Fig 5b)), the EC50 was found to be 19 nM.

For the molecule `CN[C@@H](C)C(=O)N[C@H](C(=O)N1CSC[C@@H]1C(=O)NC1CCCc2ccccc21)C(C)C` (stereo partly shown) [compound 38, reference compound], the “inhibition of myc-RIP1 binding to GST-cIAP2-BIR3” value (shortened to “inhibition … to GST-cIAP2-BIR3”) in series [2] is “inhibited binding”. Also, in series [3], the “inhibition of myc-RIP1 binding to GST-cIAP1-BIR3” value (“inhibition … to GST-cIAP1-BIR3” below) is recorded as “inhibited binding”. For the same molecule, the values for the concentration giving a half-maximal response (EC50) in series [4] (setting [7]) and in [1] (setting [8]) were 60 nM and 20 nM, respectively. The Ki on cIAP1-BIR3 (setting [6]) was 30 nM. For the same molecule, the “effect on cIAP1 protein levels in cells” value in [5] was “caused reductions of cIAP1 protein levels in cells”.

For `CN[C@@H](C)C(=O)N[C@H](C(=O)N1CCC[C@H]1C(=O)Nc1ccc2ccccc2n1)C(C)C` [compound 39], the results for the EC50 in [4] (setting [7]) and in series [1] (setting [8]) were 70 nM and 30 nM, respectively. The Ki at cIAP1-BIR3 (setting [6]) was 80 nM.

Take `CN[C@@H](C)C(=O)N[C@@H](C(=O)N1CCC[C@@H]1C(=O)NNc1cccc(F)c1)C1CCCCC1` [compound 40, reference compound]: the “inhibition … to GST-cIAP2-BIR3” value in series [2] is “did not”. The “inhibition … to GST-cIAP1-BIR3” value in series [3] was “did not”. Also, the “TNF EC50” value in series [4] (PC-3 cells, cell viability) is listed as “IN^b”. Moreover, the Ki at cIAP1-BIR3 (setting [6]) is above 92400 nM. For the same molecule, the “effect on cIAP1 protein levels in cells” value in [5] is on record as “did not”. Also, the “LT-α EC50” value in series [1] (setting [9]) is “IN^b”.

For `CN[C@@H](C)C(=O)N[C@H](C(=O)N[C@@H](C)C(=O)NNc1ccccc1)C(C)C` [compound 23], the Ki was 13600 nM on cIAP2-BIR2; 6130 nM and 6100 nM at cIAP1-BIR3 (setting [6]); 7390 nM at cIAP1-BIR2; 8290 nM at cIAP2-BIR3. For the same molecule, the “TNF EC50” value in series [4] (PC-3 cells, cell viability) is reported as “IN^b”. Moreover, in series [4] (in words), the “cytotoxicity against PC-3 cells with TNF” value was “essentially no cytotoxicity”. Moreover, the “LT-α EC50” value in [1] (setting [9]) is on record as “IN^b”. Also, the “cytotoxicity against PC-3 cells with LT-α” value in [1] (in words) was “essentially no cytotoxicity”.

On to `CN[C@@H](C)C(=O)N[C@H](C(=O)N1CCC[C@@H]1C(=O)N[C@H]1CCOc2ccccc21)C(C)C` [compound 37, reference compound], for which the “inhibition … to GST-cIAP2-BIR3” value in series [2] was “inhibited binding”. The “inhibition … to GST-cIAP1-BIR3” value in series [3] is “inhibited binding”. Also, the figures for the EC50 in [4] (setting [7]) and in [1] (setting [8]) were 30 nM and 10 nM, respectively. Further, at cIAP1-BIR3 (setting [6]), the Ki was 20 nM.

For `CN[C@@H](C)C(=O)N[C@H](C(=O)N[C@@H](C)C(=O)Nc1cccc2ccccc12)C(C)C` [compound 15], the Ki is 17500 nM on cIAP2-BIR2; 3230 nM and 3200 nM on cIAP1-BIR3 (setting [6]); 8960 nM on cIAP1-BIR2; 5100 nM at cIAP2-BIR3. Moreover, the EC50 in series [4] (representative curves, CellTiter-Glo, read-out: EC50, sensitization of PC-3 tumor cells to TNF (Fig 5a)) is 5300 nM.
